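Grown in 96-well plates, cells were treated for 48 hours with each compound at five concentrations. Insufficient inhibition: endpoint recorded as highest concentration tested. Definition used: TGI = concentration required for complete inhibition of growth.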
Legend:
Experiment in all cases: growth of human tumour cells (NCI), 48 h
[1] = system: 786-0 renal
[2] = system: A498 renal
[3] = system: A549 NSCLC
[4] = system: ACHN renal
[5] = system: BT-549 breast
[6] = system: CAKI-1 renal
[7] = system: CCRF-CEM leukemia
[8] = system: COLO 205 colon
[9] = system: DU-145 prostate
[10] = system: EKVX NSCLC
[11] = system: HCC-2998 colon
[12] = system: HCT-116 colon
[13] = system: HCT-15 colon
[14] = system: HOP-62 NSCLC
[15] = system: HOP-92 NSCLC
[16] = system: HS 578T breast
[17] = system: HT29 colon
[18] = system: IGROV1 ovarian
[19] = system: K-562 leukemia
[20] = system: KM12 colon
[21] = system: LOX IMVI melanoma
[22] = system: M14 melanoma
[23] = system: MALME-3M melanoma
[24] = system: MCF7 breast
[25] = system: MDA-MB-231 breast
[26] = system: MDA-MB-435
[27] = system: MDA-N
[28] = system: MOLT-4 leukemia
[29] = system: NCI-H226 lung
[30] = system: NCI-H23 lung
[31] = system: NCI-H460 lung
[32] = system: NCI-H522 lung
[33] = system: NCI/ADR-RES ovarian
[34] = system: OVCAR-3 ovarian
[35] = system: OVCAR-4 ovarian
[36] = system: OVCAR-5 ovarian
[37] = system: OVCAR-8 ovarian
[38] = system: PC-3 prostate
[39] = system: RXF 393 renal
[40] = system: SF-268 CNS
[41] = system: SF-295 CNS
[42] = system: SF-539 CNS
[43] = system: SK-MEL-2 melanoma
[44] = system: SK-MEL-28 melanoma
[45] = system: SK-MEL-5 melanoma
[46] = system: SK-OV-3 ovarian
[47] = system: SN12C renal
[48] = system: SNB-19 CNS
[49] = system: SNB-75 CNS
[50] = system: SR leukemia
[51] = system: SW-620 colon
[52] = system: T-47D breast
[53] = system: TK-10 renal
[54] = system: U251 CNS
[55] = system: UACC-257 melanoma
[56] = system: UACC-62 melanoma
[57] = system: UO-31 renal
[58] = system: DLD-1 colon
[59] = system: DMS 114 small cell lung
[60] = system: HL-60(TB) leukemia
[61] = system: LXFL 529 NSCLC
[62] = system: M19-MEL melanoma
[63] = system: RPMI-8226 leukemia
[64] = system: SNB-78 CNS
[65] = system: KM20L2 colon

In the case of `C=C(Cl)C(Cl)(CBr)CCC(Cl)C(C)C` (stereo not drawn), the TGI [1] is reported as 4.26 µM, the TGI [2] is reported as 14.4 µM and the TGI [3] is reported as 27.1 µM. The TGI [4] was 9.52 µM, the TGI [5] was 27.9 µM and the TGI [6] was 5.74 µM. For the same compound, the TGI [7] was > 100 µM, the TGI [8] was 10.3 µM and the TGI [9] was 3.77 µM. For the same compound, the TGI [10] was 27.9 µM, the TGI [11] was 15.2 µM and the TGI [12] was 5.96 µM. For the same compound, the TGI [13] was 22.1 µM, the TGI [14] was 2.94 µM and the TGI [15] was 3.52 µM. The TGI [16] was 4.07 µM, the TGI [17] was 0.955 µM and the TGI [18] was 30.8 µM. The TGI [19] was > 100 µM, the TGI [20] was 6.11 µM and the TGI [21] was 26.2 µM. It also gave a TGI [22] of 42.6 µM, a TGI [23] of 28.4 µM and a TGI [24] of 2570 nM. The TGI [25] was 9.99 µM, the TGI [26] was 20.6 µM and the TGI [27] was 16.3 µM. The TGI [28] was > 62.9 µM, the TGI [29] was > 65.5 µM and the TGI [30] was 50 µM. For the same compound, the TGI [31] was 5.47 µM, the TGI [32] was 15.8 µM and the TGI [33] was 29.3 µM. It also gave a TGI [34] of 3.45 µM, a TGI [35] of 25.4 µM and a TGI [36] of 23.9 µM. For the same compound, the TGI [37] was > 100 µM, the TGI [38] was 5.8 µM and the TGI [39] was 22 µM. The TGI [40] was 11.5 µM, the TGI [41] was 6.48 µM and the TGI [42] was 2590 nM. For the same compound, the TGI [43] was 4.29 µM, the TGI [44] was 5.62 µM and the TGI [45] was 42.8 µM. The TGI [46] was > 89.5 µM, the TGI [47] was 33.2 µM and the TGI [48] was 14.2 µM. The TGI [49] was 5.66 µM, the TGI [50] was > 54.7 µM and the TGI [51] was 11.8 µM. It also gave a TGI [52] of 411 nM, a TGI [53] of 3.12 µM and a TGI [54] of 1.88 µM. It also gave a TGI [55] of 6.02 µM, a TGI [56] of 14 µM and a TGI [57] of 7.4 µM.

With `CC(C)(C)C(=O)Cc1cc2c(cc1C(=O)O)S(=O)(=O)NC(C(C)(C)C)=C2` the TGI [1] was > 100 µM, the TGI [2] was > 100 µM and the TGI [3] was > 100 µM. The TGI [4] was > 100 µM, the TGI [6] was > 100 µM and the TGI [7] was > 100 µM. For the same compound, the TGI [8] was > 100 µM, the TGI [58] was > 100 µM and the TGI [59] was > 100 µM. For the same compound, the TGI [10] was > 100 µM, the TGI [12] was > 100 µM and the TGI [60] was > 100 µM. The TGI [14] was > 100 µM, the TGI [15] was > 100 µM and the TGI [17] was > 100 µM. The TGI [19] was > 100 µM, the TGI [20] was > 100 µM and the TGI [61] was > 100 µM. For the same compound, the TGI [22] was > 100 µM, the TGI [62] was > 100 µM and the TGI [23] was > 100 µM. For the same compound, the TGI [28] was > 100 µM, the TGI [29] was > 100 µM and the TGI [30] was > 100 µM. For the same compound, the TGI [31] was > 100 µM, the TGI [32] was > 100 µM and the TGI [34] was > 100 µM. For the same compound, the TGI [35] was > 100 µM, the TGI [36] was > 100 µM and the TGI [37] was > 100 µM. For the same compound, the TGI [63] was > 100 µM, the TGI [40] was > 100 µM and the TGI [41] was > 100 µM. For the same compound, the TGI [43] was > 100 µM, the TGI [44] was > 100 µM and the TGI [46] was > 100 µM. For the same compound, the TGI [47] was > 100 µM, the TGI [48] was > 100 µM and the TGI [49] was > 100 µM. The TGI [64] was > 100 µM, the TGI [50] was > 100 µM and the TGI [51] was > 100 µM. For the same compound, the TGI [53] was > 100 µM, the TGI [54] was > 100 µM and the TGI [55] was > 100 µM. For the same compound, the TGI [56] was > 100 µM and the TGI [57] was > 100 µM.

For `O=C1C2=C(Nc3cc([N+](=O)[O-])ccc3N2)OC1c1c[nH]c2ccc(COc3ccccc3)cc12` (stereo not drawn), the TGI [1] was > 100 µM, the TGI [2] was > 100 µM and the TGI [3] was > 100 µM. The TGI [4] was > 100 µM, the TGI [5] was > 100 µM and the TGI [6] was > 100 µM. The TGI [8] was 55.8 µM, the TGI [9] was > 100 µM and the TGI [10] was > 100 µM. The TGI [11] was > 100 µM, the TGI [12] was > 100 µM and the TGI [13] was > 100 µM. For the same compound, the TGI [60] was 17.7 µM, the TGI [14] was > 100 µM and the TGI [15] was > 100 µM. The TGI [16] was > 100 µM, the TGI [17] was > 100 µM and the TGI [18] was > 100 µM. The TGI [19] was > 100 µM, the TGI [20] was > 100 µM and the TGI [21] was > 100 µM. For the same compound, the TGI [22] was > 100 µM, the TGI [23] was > 100 µM and the TGI [24] was > 100000 nM. The TGI [25] was > 100 µM, the TGI [26] was > 100 µM and the TGI [27] was > 100 µM. For the same compound, the TGI [28] was 40.4 µM, the TGI [29] was > 100 µM and the TGI [30] was > 100 µM. The TGI [31] was > 100 µM, the TGI [32] was > 100 µM and the TGI [33] was > 100 µM. The TGI [34] was > 100 µM, the TGI [35] was > 100 µM and the TGI [36] was > 100 µM. The TGI [37] was > 100 µM, the TGI [38] was > 100 µM and the TGI [63] was > 100 µM. The TGI [39] was > 100 µM, the TGI [40] was > 100 µM and the TGI [41] was > 100 µM. The TGI [42] was > 100000 nM, the TGI [43] was > 100 µM and the TGI [44] was > 100 µM. For the same compound, the TGI [45] was > 100 µM, the TGI [46] was > 100 µM and the TGI [47] was > 100 µM. For the same compound, the TGI [48] was > 100 µM, the TGI [49] was 65.9 µM and the TGI [50] was > 100 µM. The TGI [51] was > 100 µM, the TGI [52] was > 100000 nM and the TGI [53] was > 100 µM. The TGI [54] was > 100 µM, the TGI [55] was > 100 µM and the TGI [56] was > 100 µM. For the same compound, the TGI [57] was > 100 µM.

`CCCCCC(=O)OC[n+]1ccc2c(C)c3[nH]c4ccccc4c3c(C)c2c1` was tested, and the TGI [2] was 2.67 µM, the TGI [4] was 11.1 µM and the TGI [6] was 7.75 µM. For the same compound, the TGI [60] was > 100 µM, the TGI [14] was 4.14 µM and the TGI [15] was > 100 µM. It also gave a TGI [18] of 38.6 µM, a TGI [65] of 2750 nM and a TGI [28] of 8.26 µM. It also gave a TGI [36] of 2.75 µM, a TGI [63] of 1.78 µM and a TGI [43] of 29.8 µM. The TGI [46] was 5.13 µM, the TGI [50] was 12 µM and the TGI [53] was 15.4 µM. It also gave a TGI [57] of 13 µM.

— PubChem BioAssay (NCI)
